Laboratory results reported in US11932624B2, “MDM2 degraders and uses thereof” (Kymera Therapeutics, Inc., priority 2020, dated 2024).

Tested on: RS411 cells
Experiment: Cell Viability CTG Assay (CellTiter Glo) in RS411 cells
Type: cell-based
Settings: Homo sapiens, RS4-11, 24 h, duration 1 day
In short: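 RS411 cells at 1000 cells/well were exposed to compound (top final 10 μM, 3-fold, 11 doses; 0.2% DMSO) at 37 °C, 5% CO2 for 1-4 days. Viability was read by CellTiter Glo luminescence after 10 min at RT. IC50 is reported as letter-code bins.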

SMILES	IC50 [nM]
CN1[C@@H](CN[C@H]2CC[C@H](C(=O)N3CCC(CCc4ccc5c(c4)n(C)c(=O)n5C4CCC(=O)NC4=O)CC3)CC2)[C@H](c2cccc(Cl)c2F)[C@]2(C(=O)Nc3cc(Cl)ccc32)C12CCCCC2 (stereo partly drawn) [I-156]	> 1000
Cn1c(=O)n(C2CCC(=O)NC2=O)c2ccc(CCCCCNC(=O)[C@@H]3CCC(NC(=O)[C@@H]4NC5(CCC(C)(C)CC5)[C@@]5(C(=O)Nc6cc(Cl)ccc65)[C@H]4c4ccnc(Cl)c4F)CO3)cc21 (stereo partly drawn) [I-157]	< 50
CN1[C@@H](C(=O)N[C@H]2CC[C@H](CN3CCC4(CC3)CN(CCc3ccc5c(c3)n(C)c(=O)n5C3CCC(=O)NC3=O)C4)CC2)[C@H](c2cccc(Cl)c2F)[C@]2(C(=O)Nc3cc(Cl)ccc32)C12CCCCC2 (stereo partly drawn) [I-158]	< 50
Cn1c(=O)n(C2CCC(=O)NC2=O)c2cccc(CCN3CC4(CCN(C[C@H]5CC[C@H](NC(=O)[C@@H]6NC7(CCCCC7)[C@@]7(C(=O)Nc8cc(Cl)ccc87)[C@H]6c6cccc(Cl)c6F)CC5)CC4)C3)c21 (stereo partly drawn) [I-159]	< 50
CN(CCCCCc1ccc2c(c1)n(C)c(=O)n2C1CCC(=O)NC1=O)Cc1ccc(NC(=O)[C@@H]2NC3(CCCCC3)[C@@]3(C(=O)Nc4cc(Cl)ccc43)[C@H]2c2cccc(Cl)c2F)c(F)c1 (stereo partly drawn) [I-161]	< 50
Cn1c(=O)n(C2CCC(=O)NC2=O)c2ccc(CCCCCNC(=O)c3ccc(NC(=O)[C@@H]4NC5(CCCCC5)[C@@]5(C(=O)Nc6cc(Cl)ccc65)[C@H]4c4cccc(Cl)c4F)c4c3OCCO4)cc21 (stereo partly drawn) [I-163]	< 50
CC1(C)CCC2(CC1)N[C@@H](C(=O)N[C@H]1CC[C@H](CN3CCC(C#Cc4ccn5c(N6CCC(=O)NC6=O)cnc5c4)CC3)CC1)[C@H](c1ccnc(Cl)c1F)[C@]21C(=O)Nc2cc(Cl)ccc21 [I-164]	< 50
Cn1c(=O)n(C2CCC(=O)NC2=O)c2ccc(CCC3CCN(C(=O)c4coc([C@@H]5NC6(CCCCC6)[C@@]6(C(=O)Nc7cc(Cl)ccc76)[C@H]5c5cccc(Cl)c5F)n4)CC3)cc21 (stereo partly drawn) [I-165]	> 1000
CC(C)[C@@H](CS(=O)(=O)C(C)C)N1C(=O)[C@@](C)(CC(=O)N[C@H]2CC[C@H](CN3CCC(C#Cc4ccn5c(N6CCC(=O)NC6=O)cnc5c4)CC3)CC2)C[C@H](c2cccc(Cl)c2)[C@H]1c1ccc(Cl)cc1 [I-166]	500 to 1000
CC(C)(C)C[C@@H]1N[C@@H](C(=O)N[C@H]2CC[C@H](CN3CCC(C#Cc4cccn5c(N6CCC(=O)NC6=O)cnc45)CC3)CC2)[C@H](c2cccc(Cl)c2F)[C@@]1(C#N)c1ccc(Cl)cc1F [I-167]	> 1000
COc1cc2c(cc1OC(C)C)C(c1ccc(Cl)cc1)N(c1ccc(N(C)C[C@H]3CC[C@H](N(C)C(=O)CCCCc4ccc5c(c4)n(C)c(=O)n5C4CCC(=O)NC4=O)CC3)cc1)C(=O)C2 (stereo partly drawn) [I-168]	< 50
Cn1c(=O)n(C2CCC(=O)NC2=O)c2ccc(C#CCCN3CCC(NC(=O)[C@@H]4NC5(CCCCC5)[C@@]5(C(=O)Nc6cc(Cl)ccc65)[C@H]4c4cccc(Cl)c4F)CC3)cc21 (stereo partly drawn) [I-169]	> 1000
CC(C)[C@@H](CS(=O)(=O)C(C)C)N1C(=O)[C@@](C)(CC(=O)N[C@H]2CC[C@H](CN3CCC(C#Cc4cccn5c(N6CCC(=O)NC6=O)cnc45)CC3)CC2)C[C@H](c2cccc(Cl)c2)[C@H]1c1ccc(Cl)cc1 [I-170]	100 to 500
Cn1c(=O)n(C2CCC(=O)NC2=O)c2ccc(CC[C@H]3CC[C@H](N4CCC(NC(=O)[C@@H]5NC6(CCCCC6)[C@@]6(C(=O)Nc7cc(Cl)ccc76)[C@H]5c5cccc(Cl)c5F)CC4)CC3)cc21 (stereo partly drawn) [I-171]	< 50
Cn1c(=O)n(C2CCC(=O)NC2=O)c2ccc(CCCCCOC3CCN(C(=O)c4coc([C@@H]5NC6(CCCCC6)[C@@]6(C(=O)Nc7cc(Cl)ccc76)[C@H]5c5cccc(Cl)c5F)n4)CC3)cc21 (stereo partly drawn) [I-172]	> 1000
Cn1c(=O)n(C2CCC(=O)NC2=O)c2ccc(C3CCN(C(=O)[C@H]4CC[C@H](NC(=O)[C@@H]5NC6(CCCCC6)[C@@]6(C(=O)Nc7cc(Cl)ccc76)[C@H]5c5cccc(Cl)c5F)CC4)CC3)cc21 (stereo partly drawn) [I-174]	< 50
COc1cc2c(cc1OC(C)C)C(c1ccc(Cl)cc1)N(c1ccc(N(C)C[C@H]3CC[C@H](N(C)CCOCCOCC(=O)N[C@H](C(=O)N4C[C@H](O)C[C@H]4C(=O)NCc4ccc(-c5scnc5C)cc4)C(C)(C)C)CC3)cc1)C(=O)C2 (stereo partly drawn) [I-175]	> 1000
Cn1c(=O)n(C2CCC(=O)NC2=O)c2ccc(C3CCN(C(=O)c4ccc(NC(=O)[C@@H]5NC6(CCCCC6)[C@@]6(C(=O)Nc7cc(Cl)ccc76)[C@H]5c5cccc(Cl)c5F)cc4)CC3)cc21 (stereo partly drawn) [I-176]	< 50
Cn1c(=O)n(C2CCC(=O)NC2=O)c2ccc(C3CCN(C(=O)[C@H]4CC[C@H](NC(=O)[C@@H]5NC6(CCC(C)(C)CC6)[C@@]6(C(=O)Nc7cc(Cl)ccc76)[C@H]5c5ccnc(Cl)c5F)CC4)CC3)cc21 (stereo partly drawn) [I-177]	< 50
Cn1c(=O)n(C2CCC(=O)NC2=O)c2ccc(N3CCN(C(=O)[C@H]4CC[C@H](NC(=O)[C@@H]5NC6(CCCCC6)[C@@]6(C(=O)Nc7cc(Cl)ccc76)[C@H]5c5cccc(Cl)c5F)CC4)CC3)cc21 (stereo partly drawn) [I-178]	< 50
COc1cc2c(cc1OC(C)C)[C@H](c1ccc(Cl)cc1)N(c1ccc(N(C)CC3CCN(C(=O)CCCCCc4ccc5c(c4)n(C)c(=O)n5C4CCC(=O)NC4=O)CC3)cc1)C(=O)C2 (stereo partly drawn) [I-179]	< 50

SMILES	IC50 [nM]
Cn1c(=O)n(C2CCC(=O)NC2=O)c2ccc(CCN3CCN(C(=O)[C@H]4CC[C@H](NC(=O)[C@@H]5NC6(CCCCC6)[C@@]6(C(=O)Nc7cc(Cl)ccc76)[C@H]5c5cccc(Cl)c5F)CC4)CC3)cc21 (stereo partly drawn) [I-180]	< 50
COc1cc2c(cc1OC(C)C)[C@H](c1ccc(Cl)cc1)N(c1ccc(N(C)CC3CCN(C(=O)Cc4ccc5c(c4)n(C)c(=O)n5C4CCC(=O)NC4=O)CC3)cc1)C(=O)C2 (stereo partly drawn) [I-181]	> 1000
COc1cc2c(cc1OC(C)C)[C@H](c1ccc(Cl)cc1)N(c1ccc(N(C)CC3CCN(C(=O)CCCc4ccc5c(c4)n(C)c(=O)n5C4CCC(=O)NC4=O)CC3)cc1)C(=O)C2 (stereo partly drawn) [I-182]	< 50
Cn1c(=O)n(C2CCC(=O)NC2=O)c2ccc(CN3CCN(C(=O)[C@H]4CC[C@H](NC(=O)C5NC6(CCCCC6)[C@@]6(C(=O)Nc7cc(Cl)ccc76)[C@H]5c5cccc(Cl)c5F)CC4)CC3)cc21 (stereo partly drawn) [I-183]	< 50
O=C1CCN(c2cnc3cc(NCCCCCNC[C@H]4CC[C@H](NC(=O)[C@@H]5NC6(CCCCC6)[C@@]6(C(=O)Nc7cc(Cl)ccc76)[C@H]5c5cccc(Cl)c5F)CC4)ccn23)C(=O)N1 [I-184]	50 to 100
Cc1ccc2c(c1C1CCN(C[C@H]3CC[C@H](NC(=O)[C@@H]4NC5(CCCCC5)[C@@]5(C(=O)Nc6cc(Cl)ccc65)[C@H]4c4cccc(Cl)c4F)CC3)CC1)n(C)c(=O)n2C1CCC(=O)NC1=O (stereo partly drawn) [I-185]	< 50
Cn1c(=O)n(C2CCC(=O)NC2=O)c2ccc(C3CCN(C[C@H]4CC[C@H](NC(=O)[C@@H]5NC6(CCCCC6)[C@@]6(C(=O)Nc7cc(Cl)ccc76)[C@H]5c5cccc(Cl)c5F)CC4)CC3)cc21 (stereo partly drawn) [I-186]	< 50
COc1ccc2c(c1C1CCN(C[C@H]3CC[C@H](NC(=O)[C@@H]4NC5(CCCCC5)[C@@]5(C(=O)Nc6cc(Cl)ccc65)[C@H]4c4cccc(Cl)c4F)CC3)CC1)n(C)c(=O)n2C1CCC(=O)NC1=O (stereo partly drawn) [I-187]	< 50
Cc1ncsc1-c1ccc(CNC(=O)[C@@H]2C[C@@H](O)CN2C(=O)[C@@H](NC(=O)COCCOCC2CCN(C[C@H]3CC[C@H](NC(=O)[C@@H]4NC5(CCCCC5)[C@@]5(C(=O)Nc6cc(Cl)ccc65)[C@H]4c4cccc(Cl)c4F)CC3)CC2)C(C)(C)C)cc1 [I-188]	> 1000
Cn1c(=O)n(C2CCC(=O)NC2=O)c2ccc(CCCCCN3CCc4cc(NC(=O)[C@@H]5NC6(CCCCC6)[C@@]6(C(=O)Nc7cc(Cl)ccc76)[C@H]5c5cccc(Cl)c5F)ccc4C3)cc21 (stereo partly drawn) [I-189]	< 50
COc1cc2c(cc1OC(C)C)C(c1ccc(Cl)cc1)N(c1ccc(N(C)C[C@H]3CC[C@H](N4CCN(CCCCCc5cccc6c5n(C)c(=O)n6C5CCC(=O)NC5=O)C(=O)C4)CC3)cc1)C(=O)C2 (stereo partly drawn) [I-192]	< 50
COc1cc2c(cc1OC(C)C)C(c1ccc(Cl)cc1)N(c1ccc(N(C)C[C@H]3CC[C@H](N4CCN(CCCCCc5ccc6c(c5)n(C)c(=O)n6C5CCC(=O)NC5=O)C(=O)C4)CC3)cc1)C(=O)C2 (stereo partly drawn) [I-193]	< 50
COc1cc2c(cc1OC(C)C)C(c1ccc(Cl)cc1)N(c1ccc(N(C)C[C@H]3CC[C@H](N4CCC(CCc5ccc6c(c5)n(C)c(=O)n6C5CCC(=O)NC5=O)CC4)CC3)cc1)C(=O)C2 (stereo partly drawn) [I-194]	< 50
COc1cc2c(cc1OC(C)C)C(c1ccc(Cl)cc1)N(c1ccc(N(C)C[C@H]3CC[C@H](N(C)CCc4ccc5c(c4)n(C)c(=O)n5C4CCC(=O)NC4=O)CC3)cc1)C(=O)C2 (stereo partly drawn) [I-195]	> 1000
Cn1c(=O)n(C2CCC(=O)NC2=O)c2ccc(CCN3CCN(C[C@H]4CC[C@H](NC(=O)[C@@H]5NC6(CCC(C)(C)CC6)[C@@]6(C(=O)Nc7cc(Cl)ccc76)[C@H]5c5ccnc(Cl)c5F)CC4)CC3)cc21 (stereo partly drawn) [I-196]	< 50
COc1cc2c(cc1OC(C)C)[C@@H](c1ccc(Cl)cc1)N(c1ccc(N(C)CC3CCN(CCCCCCc4ccc5c(c4)n(C)c(=O)n5C4CCC(=O)NC4=O)CC3)cc1)C(=O)C2 (stereo partly drawn) [I-197]	> 1000
Cn1c(=O)n(C2CCC(=O)NC2=O)c2ccc(C#CCCN3CCN(C[C@H]4CC[C@H](NC(=O)[C@@H]5NC6(CCC(C)(C)CC6)[C@@]6(C(=O)Nc7cc(Cl)ccc76)[C@H]5c5ccnc(Cl)c5F)CC4)CC3)cc21 (stereo partly drawn) [I-198]	< 50
CC(C)(C)C[C@@H]1N[C@@H](C(=O)N[C@H]2CC[C@H](CNCCCC#Cc3ccc4c(N5CCC(=O)NC5=O)cncc4c3)CC2)[C@H](c2cccc(Cl)c2F)[C@@]1(C#N)c1ccc(Cl)cc1F [I-199]	> 1000
COc1cc2c(cc1OC(C)C)[C@H](c1ccc(Cl)cc1)N(c1ccc(N(C)CC3CCN(CCCCCCc4ccc5c(c4)n(C)c(=O)n5C4CCC(=O)NC4=O)CC3)cc1)C(=O)C2 (stereo partly drawn) [I-201]	< 50
CC(C)(C)C[C@@H]1N[C@@H](C(=O)N[C@H]2CC[C@H](CNCCCC#Cc3cccn4c(N5CCC(=O)NC5=O)cnc34)CC2)[C@H](c2cccc(Cl)c2F)[C@@]1(C#N)c1ccc(Cl)cc1F [I-202]	> 1000
CC1(C)CCC2(CC1)NC(C(=O)N[C@H]1CC[C@H](CN3CCN(CCC#Cc4cccn5c(N6CCC(=O)NC6=O)cnc45)CC3)CC1)[C@H](c1ccnc(Cl)c1F)[C@]21C(=O)Nc2cc(Cl)ccc21 (stereo partly drawn) [I-203]	< 50
